Experimental data: US20100280118A1, “Methods for treating substance dependence” (The Scripps Research Institute, priority 2007, published 2010)
Marks after values point to notes of the source that are not given here.

What was measured:
[1] = test system: cue-reactive, alcohol-dependent individuals; test: Cue reactivity study, 1 week gabapentin 1200 mg vs placebo, alcohol and affective cue-induced craving; type: in vivo, human
Method: This Example describes the results of a study to examine the effectiveness of gabapentin 1200 mg for attenuating symptoms of protracted abstinence in a non treatment-seeking sample of cue-reactive, alcohol-dependent individuals. Subjects were 33 paid volunteers with current DSM-IV alcohol dependence and a strength of craving rating 1σ or greater for alcohol than water cues. Subjects were randomly assigned to gabapentin or placebo for 1-week and then participated in a within-subjects trial where each was exposed to standardized sets of pleasant, neutral, and unpleasant visual stimuli followed by alcohol or water cues. A key aspect of the study design is exposure to alcohol cues (sight and smell of the subject's favorite alcoholic beverage) without consumption. Alcohol consumption would be expected to mask the effects of any medication that targets symptoms of protracted abstinence, as either or both could attenuate such symptoms; the effects of alcohol and the drug to be tested would therefore be inextricably confounded. The design is therefore relatively novel in combining elicitation of craving while inducing both positive and negative affect (along with interaction effects) with non-consumptive alcohol cue exposure. As such it may be particularly well-suited for testing the effectiveness of pharmacological treatments intended to normalize the neurobiological imbalances associated with protracted abstinence in alcoholics.
Subject enrollment: The study was conducted at the University of Miami School of Medicine, Miami, Fla. and approved by that institution's Institutional Review Board as conforming to the ethical standards of the 1964 Declaration of Helsinki. Subjects provided written informed consent prior to participation. Subjects were non treatment-seeking paid volunteers recruited primarily through advertisements, meeting the Diagnostic and Statistical Manual of Mental Disorders, 4th Edition (DSM-IV; American Psychiatric Association, 1994) criteria for current alcohol dependence, abstinent from alcohol on the day of the study, as verified by Breath Alcohol Concentration (BAC), not in acute withdrawal as verified by a Clinical Institute Withdrawal Assessments for Alcohol (CIWA-Ar; Sullivan et al., Br J Addict 84:1353-1357, 1989) score of <8, and meeting the definition of “cue reactive”. An individual was considered cue reactive if his or her “strength of craving” score under a neutral affect condition (see Study Overview below) was ≧1 standard deviation (3 VAS rating scale points; see measures discussion) greater for alcohol than for water cues during a mini cue reactivity session. This is similar to the criterion described by Rubonis et al. (J. Stud. Alcohol. 55:487-494, 1994) to classify cue reactors. Exclusionary criteria consisted of clinically significant medical or psychiatric disorders including depression, anxiety, or dependence on substances other than alcohol and nicotine.
Study Overview and Experimental Design: Subjects meeting admission criteria were randomized to receive gabapentin 1200 mg or placebo. Because image-based affective cue reactivity was not as strong as we had anticipated, to improve statistical power we augmented the control group with untreated individuals from three otherwise-similar lab studies. Criteria for participation were the same in all cases. Dosages (matched in the placebo condition) were titrated as follows: 300 mg morning on day 1, 300 mg morning and also evening on day 2, 300 mg morning, midday and evening on day 3, and 300 mg morning and midday followed by 600 mg evening for days 4-7. On day 7 of double-blind medication, overall measures of mood, sleep, and craving were assessed. This one-week interval of chronic dosing is intended to model and predict the critical first week on medication in a Phase II or III clinical trial, when participants' experiences with sleep and mood, or side effects, can dramatically affect treatment adherence and risk for dropout. […]

[2] = test system: non treatment-seeking volunteers with current cannabis and alcohol dependence; test: Pilot laboratory study, one week gabapentin 1200 mg/d vs placebo; type: in vivo, human
Method: This Example describes treatment of subjects suffering from cannabis dependence with gabapentin. Subjects with DSM-IV cannabis dependence were enrolled in a clinical study of treatment with gabapentin. Earlier, in a pilot laboratory study, the safety and efficacy of gabapentin 1200 mg/d in non treatment-seeking volunteers with current cannabis and alcohol dependence involving were examined in one week of chronic dosing with double-blind, randomly assigned active drug or placebo. […] The results lend support to: 1) the safety and tolerability of our drug titration schedule and the steady state dose of gabapentin 1200 mg/d in outpatients with cannabis dependence; 2) the efficacy of gabapentin 1200 mg/d in treating disturbed sleep, a key symptom of cannabis withdrawal; and 3) our ability to recruit a sample of subjects with cannabis dependence who are willing to participate in clinical research involving medication. Based on the results from this pilot study, subjects with only cannabis dependence were then recruited and treated with gabapentin, as detailed below.

[3] = test system: outpatients with alcohol dependence; test: 12-week double-blind, placebo-controlled, dose-ranging study of gabapentin 900 or 1800 mg/day in alcohol dependence; type: in vivo, human; details: for Cohen's d, drinks per drinking day: interim analysis
Method: This example describes the study of gabapentin treatment of subjects suffering from alcohol dependence. A 12-week, double-blind, placebo-controlled, dose-ranging study was conducted with random assignment to gabapentin 900 mg/day, 1800 mg/day, or placebo. Subjects are outpatients with alcohol dependence. The 3 pharmacological treatment conditions were administered in conjunction with manual-guided behavioral counseling that incorporates strategies to increase motivation, abstinence, and medication compliance. Counseling and research assessments occurred weekly throughout the 12-week treatment phase. Post-treatment assessments occurred at Weeks 13, 24, and 36.
The criteria for inclusion are as follows: (1) Males or females over 18 years of age; (2) Meets DSM-IV criteria for current alcohol dependence; (3) Seeking research-based outpatient treatment for alcohol problems; (4) Abstinent from alcohol a minimum of 3 days to a maximum of 30 days at the time of randomization; and (5) Willing to attend 12 weekly study visits and 3 follow-up visits. The criteria for exclusion are as follows: (1) Currently meets DSM-IV criteria for dependence on substances other than alcohol, nicotine or caffeine; (2) Significant medical disorders that will increase potential risk or interfere with study participation, e.g., plasma […] >1.4 mg/dL; (3) Sexually active female subjects with childbearing potential who are pregnant, nursing or refuse to use a reliable method of birth control; (4) Meets DSM-IV criteria for a major AXIS I disorder other than alcohol dependence, including depressive and anxiety disorders, and is in need of, or currently undergoing, pharmacotherapy; (5) Inability to understand and/or comply with the provisions of the protocol and consent form; (6) Treatment with an investigational drug during the previous month; (7) Sensitivity to study drug as evidenced by adverse drug experiences with gabapentin or its ingredients; (8) Ongoing treatment with disulfuram (Antabuse), naltrexone (ReVia®), acamprosate (Campral®) or other medications that may affect study outcomes, e.g., anticonvulsants; (9) More than one month of abstinence prior to randomization; (10) Subjects who require medicated detoxification (Note: Subjects may proceed with study evaluation after completion of detoxification); (11) Subjects for whom treatment of alcoholism is being mandated by a legal authority; (12) Unable to identify at least one collateral informant to verify drinking status at baseline and monthly during study, and to assist in tracking subjects for follow-up assessments; or (13) Subjects who plan to move out of the geographic area served by the Clinic prior to study completion.
Primary outcome of the treatment was assesses with the following measures. Timeline Followback Interview (TLFB; Sobell and Sobell, 1992) provides quantity and frequency estimates of alcohol intake at baseline and throughout the study using a standard drinks format (Research Nurse, 20 minutes at screening and Week 24 and 36 follow-up visits, 5 minutes at weekly study visits). […] Therefore, TLFB data is supported by weekly breathalyzers and monthly collateral informant reports and GGT. If unresolved inconsistencies between sources occur, then the most negative outcome will be assumed accurate.
Secondary outcome of the treatment was assessed with the following measures. Alcohol Craving Questionnaire-Short Form (ACQ-SF; Singleton et al., 1994) provides a quick assessment of current drinking urges, difficulty resisting urges and anticipation of positive outcome or relief from negative affective state by drinking (baseline and every study visit, self report, 1-2 minutes). Beck Depression Inventory (BDI; Beck et al., 1961) is a self-rating of severity of depressive symptoms (baseline and every study visit, 5 minutes). Gamma glutamyl transferase (GGT) is used as a biochemical marker of alcohol abstinence or relapse. […]

[4] = test system: outpatients with current cannabis dependence; test: 12-week randomized, double-blind, placebo-controlled trial of gabapentin 1200 mg/d in cannabis dependence
[5] = gabapentin 1200 mg vs placebo, day 7, alcohol vs water cue, 0-20 rating
[6] = gabapentin 1200 mg vs placebo, day 7, alcohol vs water cue, VAS 0-20
[7] = gabapentin 1200 mg vs placebo, day 7, negative vs neutral affect cue, 0-20 rating
[8] = gabapentin 1200 mg vs placebo, day 7, negative vs neutral affect cue, VAS 0-20
[9] = gabapentin 1200 mg vs placebo, day 7, positive vs neutral affect cue, 0-20 rating
[10] = gabapentin 1200 mg vs placebo, day 7, positive vs neutral affect cue, VAS 0-20
[11] = % of subjects, gabapentin 1200 mg/d

NCC1(CC(=O)O)CCCCC1 [gabapentin, (1-aminomethyl)-1-cyclohexaneacetic acid] was tested, and the “symptoms generating the drug-placebo difference in symptom counts” value ([1]; 1 week, gabapentin 1200 mg vs placebo) was “dizziness (χ^2(1)=6.1, p<0.02) and fatigue”, the “total symptom counts over the week on medication (mean)” value ([1]; SAFTEE-G, 1 week, gabapentin 1200 mg, standard deviation 2.7, n=30 assessed) was 3.3 and the “Bev x Gaba, Feel strong emotion (estimated model coefficient)” value [1, 5] was 1.15. The “Bev x Gaba, Like beverage (estimated model coefficient)” value [1, 5] was −0.25, the “Bev x Gaba, SAM Arousal (estimated model coefficient)” value [1, 5] was −1.79 and the “Bev x Gaba, SAM Dominance (estimated model coefficient)” value [1, 5] was 0.81. The “Bev x Gaba, SAM Valence (estimated model coefficient)” value [1, 5] was 3.28*, the “Bev x Gaba, Craving Difficult to turn down (estimated model coefficient)” value [1, 6] was −1.31^†† and the “Bev x Gaba, Craving Drink Now (estimated model coefficient)” value [1, 6] was −1.96^†. For the same compound, the “Bev x Gaba, Craving Make Things Perfect (estimated model coefficient)” value [1, 6] was 0.23, the “Bev x Gaba, Craving Strength (estimated model coefficient)” value [1, 6] was −2.16^† and the “Aff− x Gaba, Feel strong emotion (estimated model coefficient)” value [1, 7] was −1.29. The “Aff− x Gaba, Like beverage (estimated model coefficient)” value [1, 7] was 0.98, the “Aff− x Gaba, SAM Arousal (estimated model coefficient)” value [1, 7] was −4.92* and the “Aff− x Gaba, SAM Dominance (estimated model coefficient)” value [1, 7] was 1.30. The “Aff− x Gaba, SAM Valence (estimated model coefficient)” value [1, 7] was 1.25, the “Aff− x Gaba, Craving Difficult to turn down (estimated model coefficient)” value [1, 8] was 1.26 and the “Aff− x Gaba, Craving Drink Now (estimated model coefficient)” value [1, 8] was 0.58. For the same compound, the “Aff− x Gaba, Craving Make Things Perfect (estimated model coefficient)” value [1, 8] was 0.20, the “Aff− x Gaba, Craving Strength (estimated model coefficient)” value [1, 8] was 0.96 and the “Aff+ x Gaba, Feel strong emotion (estimated model coefficient)” value [1, 9] was −1.08. The “Aff+ x Gaba, Like beverage (estimated model coefficient)” value [1, 9] was −0.04, the “Aff+ x Gaba, SAM Arousal (estimated model coefficient)” value [1, 9] was −3.22^† and the “Aff+ x Gaba, SAM Dominance (estimated model coefficient)” value [1, 9] was 0.80. For the same compound, the “Aff+ x Gaba, SAM Valence (estimated model coefficient)” value [1, 9] was 0.21, the “Aff+ x Gaba, Craving Difficult to turn down (estimated model coefficient)” value [1, 10] was −1.34^†† and the “Aff+ x Gaba, Craving Drink Now (estimated model coefficient)” value [1, 10] was 0.16. For the same compound, the “Aff+ x Gaba, Craving Make Things Perfect (estimated model coefficient)” value [1, 10] was 0.44, the “Aff+ x Gaba, Craving Strength (estimated model coefficient)” value [1, 10] was 0.25 and the “ARCI scores on five drug-of-abuse groups (abuse potential)” value ([1]; gabapentin vs. placebo, n=28) was “no statistically significant differences”. For the same compound, the “CBC, LFT, or urinalysis values” [2] was “no change from baseline”, the adverse drug complaints [2] was “no adverse drug complaints of more than mild severity” and the BDI total score ([3]; 900 mg/d vs placebo) was “no significant effect”. The “sleep disturbance (PSQI), effect size d” value ([3]; 900 mg/d vs placebo, p<0.01) was −0.50, the “daytime dysfunction (PSQI), effect size d” value ([3]; 900 mg/d vs placebo, p<0.05) was −0.27 and the “Cohen's d, drinks per drinking day” value ([3]; 900 mg/d vs placebo) was 0.82. For the same compound, the “negative affective symptoms (BDI), effect size d” value ([3]; 1800 mg/d relative to placebo, p<0.05) was 0.33, the “daytime dysfunction (PSQI), effect size d” value ([3]; 1800 mg/d vs placebo, p<0.01) was −0.43 and the “Cohen's d, drinks per drinking day” value ([3]; 1800 mg/d vs placebo) was 0.71. The “time the beneficial effect was sustained after completing treatment” value ([3]; complete study (n=150)) was “up to 12 weeks”, the “deaths or serious drug-related adverse events” value ([3]; throughout the study) was “no deaths or serious drug-related adverse events” and the “subjective sleep quality or PSQI summary score” value ([3]; treatment vs placebo, trend for 900 mg/d, p<0.08) was “no significant effect”. The “deaths or terminations due to drug-related adverse events” value ([4]; 12 weeks) was “no deaths or terminations due to drug-related adverse events”, the “Adverse event: Abdominal Pain” value [4, 11] was 25% and the “Adverse event: Decreased Appetite” value [4, 11] was 10%. For the same compound, the “Adverse event: Depression” value [4, 11] was 30%, the “Adverse event: Dizziness” value [4, 11] was 0% and the “Adverse event: Fatigue” value [4, 11] was 15%. The “Adverse event: Headache” value [4, 11] was 20%, the “Adverse event: Increased Appetite” value [4, 11] was 15% and the “Adverse event: Nausea” value [4, 11] was 15%. The “Adverse event: Nervousness” value [4, 11] was 25%, the “Adverse event: Other” value [4, 11] was 5% and the “average severity of AE's” value ([4]; both treatment groups, 2=mild) was 2.0±0.7. The “number of AE's complained of per subject” value ([4]; gabapentin 1200 mg/d, 12 weeks, p=0.11 vs placebo) was 4.0±6.7.
